Legend:
[1] = Cell viability assay (CCK-8), HCC44; assay type: cell-based; settings: HCC44 cells (non-small cell lung carcinoma), HCC44, human non-small cell lung carcinoma, read-out: IC50 (μM) mean ± SD, cytotoxicity
Method: (§1) In cellular experiments, cells are seeded into either 6-well or 96-well plates and incubated overnight, proceeding with treatments as described in the figure legends or methods section. The cell inoculation numbers are outlined as follows: For assays measuring cell viability, between 3,000 to 5,000 cells are seeded per well in 96-well plates. For other cellular assays, the seeding density ranges from 5×10^5 to 1×10^6 cells per well in 6-well plates.
(§2) Cells was plated into 96-well plates and incubated overnight prior to introduction of varying concentrations of compounds or control solvent. Following a 72-hour exposure period, cell viability was determined using a Cell Counting Kit-8 assay (Life-iLab, China). Dose-response curves were fitted using a four-parameter method facilitated by SoftMax Pro, which was subsequently used for the computation of IC50 values.

MK2 [2] = molecular target: T1, MK2 (Homo sapiens, UniProt P49137); experiment: MK2 kinase inhibition assay (ADP-Glo); assay type: biochemical; settings: mean ± SD of two independent tests
T1 sequence (P49137 whole entry): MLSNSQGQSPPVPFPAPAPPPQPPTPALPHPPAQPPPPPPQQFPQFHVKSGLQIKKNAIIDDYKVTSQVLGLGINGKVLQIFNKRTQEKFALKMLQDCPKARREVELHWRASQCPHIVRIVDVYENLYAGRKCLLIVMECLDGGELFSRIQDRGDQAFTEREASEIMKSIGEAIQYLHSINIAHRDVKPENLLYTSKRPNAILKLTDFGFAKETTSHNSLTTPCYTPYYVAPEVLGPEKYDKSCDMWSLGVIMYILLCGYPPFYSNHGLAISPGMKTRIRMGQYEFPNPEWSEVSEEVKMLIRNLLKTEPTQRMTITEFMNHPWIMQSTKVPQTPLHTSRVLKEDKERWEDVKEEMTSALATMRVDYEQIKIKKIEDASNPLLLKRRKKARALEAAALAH
Method: To assess the impact of various compounds on MK2 kinase activity, we utilized the ADP‐Glo Assay Kit (Promega) following the manufacturer's instructions. Luminescence measurements were taken using a SpectraMax Paradigm reader. The inhibition percentage was calculated using the following formula: ((specific signalDMSO control − specific signal inhibitor)/(specific signalDMSO control)) × 100%. The IC50 values were determined employing dose–response curve fitting via Prism (Graph Pad).

VEGF mRNA in THP-1 cells = experiment: RT-PCR of VEGF in IL-4/IL-13 stimulated THP-1 cells; assay type: cell-based, human; settings: IL-4/IL-13, 12 h
From the text: Following this line of investigation, we employed siRNA for the transient knockdown of MK2 in THP‐1 monocyte‐ differentiated macrophages. […] M2 macrophages play a pivotal role in promoting tumor angiogenesis through the secretion of critical factors like VEGF, which facilitate tumor neovascularization.[17] […] These findings further validate the significance of MK2 in the M2 polarization of macrophages and illustrate how compound 11, by targeting MK2, suppresses the pro‐tumorigenic phenotype of macrophages.
Total RNA was extracted from cultured cells using the EZ‐press RNA Purification Kit (EZBioscience). Complementary DNA was synthesized using the ABScript III RT Master Mix for qPCR with gDNA remover (ABclonal Technology) and was quantified with primers listed in Table S5. The relative mRNA expression levels were quantified through qPCR using the SYBR green gene expression assay (ABclonal Technology).
Figure S3 Inhibition of pro-tumorigenic M2-like polarization in macrophages by compound 11. (A) Illustrates the treatment effects on various macrophage cells using Western blot analysis post IL-4/IL-13 exposure (30 minutes or the specified time period). (B) Examines CD206 expression in RAW264.7 cells via flow cytometry post 48hours treatment of compound 11 and IL-4/IL-13. […] IL-4/IL-13 (20 ng/mL) served as the stimulation control, while untreated cells were the baseline control. […]

MK2 [3] = molecular target: T1, MK2; experiment: Kinase kinetic analysis of irreversible inhibition (Mobility Shift Assay, preincubation then 100-fold dilution); assay type: biochemical; settings: preincubation at 100 times the IC50, monitored continuously
From the text: To assess its role as an irreversible MK2 kinase inhibitor, we conducted a kinetic study on compound 11. The well‐known reversible ATP‐competitive MK2 inhibitor, PF‐3644022, served as a negative control. […] The kinase‐inhibitor mixture was subsequently diluted by a factor of 100 with a reaction buffer that included both substrate peptide and ATP. Under these circumstances, the activity of MK2 kinase was continuously monitored by assessing the phosphorylated substrate percentage. […] The enzyme activity curve almost overlapped with the curve of background group, which included only the substrate peptide without inhibitors and MK2 kinase.
In the kinase kinetic analysis to elucidate the irreversible inhibition of MK2 by compound 11, a Mobility Shift Assay was conducted. […] The EZ Reader (Caliper Life Sciences, MA) was then used to assess the kinase activity of the mixture, which was monitored continuously for 1 hour.

[4] = Cell viability assay (CCK-8), PANC-1; assay type: cell-based; settings: PANC-1 cells (pancreatic carcinoma), PANC-1, human pancreatic carcinoma, read-out: IC50 (μM) mean ± SD, cytotoxicity
Method: as §1, §2

In the case of C=CC(=O)Nc1cc(-c2cc(-c3cc4c([nH]3)CCNC4=O)ccn2)ccc1OC(F)(F)F [compound 11], the IC50 at 72 h [1] is reported as 32.3 ± 3.3 µM, the IC50 (MK2 [2]) is reported as 2.3 nM and the “effect on relative mRNA level of VEGF” value (VEGF mRNA in THP-1 cells) is reported as “inhibited”. The “MK2 kinase activity after 30 min preincubation with inhibitor and 100-fold dilution” value (MK2 [3]) was “sustained and potent inhibition of kinase activity” and the IC50 at 72 h [4] was 35.3 ± 1.4 µM.
